Drawing on patent US12559529B2, “NPY2 receptor agonists” (Boehringer Ingelheim International GmbH, priority 2019, dated 2026), this text covers Ki for six compounds.

The target of the assay is T1, Human Neuropeptide Y2 Receptor (Homo sapiens, UniProt P49146).
T1 construct: purchased CHEMICON HTS066M
T1 sequence (P49146 1-381): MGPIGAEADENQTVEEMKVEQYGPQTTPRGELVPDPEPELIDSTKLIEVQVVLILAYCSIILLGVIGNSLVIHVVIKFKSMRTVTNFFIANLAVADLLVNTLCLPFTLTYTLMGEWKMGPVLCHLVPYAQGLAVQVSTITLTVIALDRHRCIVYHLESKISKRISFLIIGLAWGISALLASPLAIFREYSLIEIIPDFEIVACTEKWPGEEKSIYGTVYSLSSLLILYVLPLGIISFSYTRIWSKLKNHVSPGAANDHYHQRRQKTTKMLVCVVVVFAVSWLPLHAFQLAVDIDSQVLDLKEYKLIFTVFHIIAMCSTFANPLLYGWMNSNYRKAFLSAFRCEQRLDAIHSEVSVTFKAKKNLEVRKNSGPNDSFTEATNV
As to the kind of experiment: Radioligand binding competition assay (RLB). Particulars: Table 3; human 125I-PYY (1-36) 0.02 nM, Y2 receptor membranes; read-out: Ki. An outline of the steps:
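Competition binding on human Y2 receptor membranes, 0.5 μg protein/well, in 50 mM HEPES, 5 mM MgCl2, 1 mM CaCl2, pH 7.4, 0.2% ovalbumin; peptides diluted from 1 mM DMSO stocks.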
With `CC(C)CC(=O)N[C@@H](C)C(=O)N1CCC[C@H]1C(=O)N[C@@H](CCC(=O)O)C(=O)N[C@@H](CCCCNC(=O)COCCOCCNC(=O)COCCOCCNC(=O)CC[C@H](NC(=O)CCCCCCCCCCCCCCCCC(=O)O)C(=O)O)C(=O)N1CCC[C@H]1C(=O)N[C@@H](CCC(=O)O)C(=O)N[C@@H](C)C(=O)N[C@@H](CC(=O)O)C(=O)N[C@@H](C)C(=O)N[C@@H](CO)C(=O)N1CCC[C@H]1C(=O)N[C@@H](CCC(=O)O)C(=O)N[C@@H](CCC(=O)O)C(=O)N[C@@H](CC(C)C)C(=O)N[C@@H](CCC(N)=O)C(=O)N[C@@H](CCCNC(=N)N)C(=O)N[C@@H](Cc1ccc(O)cc1)C(=O)N[C@@H](Cc1ccc(O)cc1)C(=O)N[C@H](C(=O)N[C@@H](C)C(=O)N[C@@H](CC(C)C)C(=O)N[C@@H](CCCNC(=N)N)C(=O)N[C@@H](Cc1c[nH]cn1)C(=O)N[C@@H](Cc1ccc(O)cc1)C(=O)N[C@@H](Cc1ccc(O)cc1)C(=O)N[C@@H](CC(N)=O)C(=O)N[C@@H](Cc1c[nH]c2ccccc12)C(=O)N[C@@H](CC(C)C)C(=O)N[C@H](C(=O)N[C@@H](CCCNC(=N)N)C(=O)N[C@@H](CCC(N)=O)C(=O)N[C@@H](CCCNC(=N)N)C(=O)N[C@@H](Cc1ccc(O)cc1)C(N)=O)[C@@H](C)O)C(C)C` [Compound 181, N{alpha-4}-(3-methylbutanoyl)-N{epsilon-7}-[2-(2-{2-[2-(2-{2-[(4S)-4-carboxy-4-(17-carboxyheptadecanamido)butanamido]ethoxy}ethoxy)acetamido]ethoxy}ethoxy)acetamido]-[4A,7K,9E,10A,18Q,22V,23A,28Y,30W,31L]hPYY (4-36)], the Ki worked out at 0.67 nM.
The result for `CC(C)CC(=O)N[C@@H](C)C(=O)N1CCC[C@H]1C(=O)N[C@@H](CCC(=O)O)C(=O)N[C@@H](CCCCNC(=O)COCCOCCNC(=O)COCCOCCNC(=O)CC[C@H](NC(=O)CCCCCCCCCCCCCCCCC(=O)O)C(=O)O)C(=O)N1CCC[C@H]1C(=O)N[C@@H](CCC(=O)O)C(=O)N[C@@H](CCC(=O)O)C(=O)N[C@@H](CC(=O)O)C(=O)NCC(=O)N[C@@H](CO)C(=O)N1CCC[C@H]1C(=O)N[C@@H](CCC(=O)O)C(=O)N[C@@H](CCC(=O)O)C(=O)N[C@@H](CC(C)C)C(=O)N[C@@H](CCC(N)=O)C(=O)N[C@@H](CCCNC(=N)N)C(=O)N[C@@H](Cc1ccc(O)cc1)C(=O)N[C@@H](Cc1ccc(O)cc1)C(=O)N[C@H](C(=O)N[C@@H](CCC(=O)O)C(=O)N[C@@H](CC(C)C)C(=O)N[C@@H](CCCNC(=N)N)C(=O)N[C@@H](Cc1c[nH]cn1)C(=O)N[C@@H](Cc1ccc(O)cc1)C(=O)N[C@@H](Cc1ccc(O)cc1)C(=O)N[C@@H](CC(N)=O)C(=O)N[C@@H](Cc1c[nH]c2ccccc12)C(=O)N[C@@H](CC(C)C)C(=O)N[C@H](C(=O)N[C@@H](CCCNC(=N)N)C(=O)N[C@@H](CCC(N)=O)C(=O)N[C@@H](CCCNC(=N)N)C(=O)N[C@@H](Cc1ccc(O)cc1)C(N)=O)[C@@H](C)O)C(C)C` [Compound 182, N{alpha-4}-(3-methylbutanoyl)-N{epsilon-7}-[2-(2-{2-[2-(2-{2-[(4S)-4-carboxy-4-(17-carboxyheptadecanamido)butanamido]ethoxy}ethoxy)acetamido]ethoxy}ethoxy)acetamido]-[4A,7K,9E,12G,18Q,22V,23E,28Y,30W,31L]hPYY (4-36)] reads 3.45 nM; that for `CC(C)CC(=O)N[C@@H](C)C(=O)N1CCC[C@H]1C(=O)N[C@@H](CCC(=O)O)C(=O)N[C@@H](CCCCNC(=O)COCCOCCNC(=O)COCCOCCNC(=O)CC[C@H](NC(=O)CCCCCCCCCCCCCCCCC(=O)O)C(=O)O)C(=O)N1CCC[C@H]1C(=O)N1CCC[C@H]1C(=O)N[C@@H](CCC(=O)O)C(=O)N[C@@H](CC(=O)O)C(=O)N[C@@H](C)C(=O)N[C@@H](CO)C(=O)N1CCC[C@H]1C(=O)N[C@@H](CCC(=O)O)C(=O)N[C@@H](CCC(=O)O)C(=O)N[C@@H](CC(C)C)C(=O)N[C@@H](CCC(N)=O)C(=O)N[C@@H](CCCNC(=N)N)C(=O)N[C@@H](Cc1ccc(O)cc1)C(=O)N[C@@H](Cc1ccc(O)cc1)C(=O)N[C@H](C(=O)N[C@@H](CO)C(=O)N[C@@H](CC(C)C)C(=O)N[C@@H](CCCNC(=N)N)C(=O)N[C@@H](Cc1c[nH]cn1)C(=O)N[C@@H](Cc1ccc(O)cc1)C(=O)N[C@@H](Cc1ccc(O)cc1)C(=O)N[C@@H](CC(N)=O)C(=O)N[C@@H](Cc1c[nH]c2ccccc12)C(=O)N[C@@H](CC(C)C)C(=O)N[C@H](C(=O)N[C@@H](CCCNC(=N)N)C(=O)N[C@@H](CCC(N)=O)C(=O)N[C@@H](CCCNC(=N)N)C(=O)N[C@@H](Cc1ccc(O)cc1)C(N)=O)[C@@H](C)O)C(C)C` [Compound 183, N{alpha-4}-(3-methylbutanoyl)-N{epsilon-7}-[2-(2-{2-[2-(2-{2-[(4S)-4-carboxy-4-(17-carboxyheptadecanamido)butanamido]ethoxy}ethoxy)acetamido]ethoxy}ethoxy)acetamido]-[4A,7K,9P,18Q,22V,28Y,30W,31L]hPYY (4-36)], 0.7 nM.
In the case of `CC(C)CC(=O)N[C@@H](C)C(=O)N1CCC[C@H]1C(=O)N[C@@H](CCC(=O)O)C(=O)N[C@@H](CCCCNC(=O)COCCOCCNC(=O)COCCOCCNC(=O)CC[C@H](NC(=O)CCCCCCCCCCCCCCCCC(=O)O)C(=O)O)C(=O)N1CCC[C@H]1C(=O)N[C@@H](CCC(=O)O)C(=O)N[C@@H](CCC(=O)O)C(=O)N[C@@H](C)C(=O)N[C@@H](C)C(=O)N[C@@H](CO)C(=O)N1CCC[C@H]1C(=O)N[C@@H](CCC(=O)O)C(=O)N[C@@H](CCC(=O)O)C(=O)N[C@@H](CC(C)C)C(=O)N[C@@H](CCC(N)=O)C(=O)N[C@@H](CCCNC(=N)N)C(=O)N[C@@H](Cc1ccc(O)cc1)C(=O)N[C@@H](Cc1ccc(O)cc1)C(=O)N[C@H](C(=O)N[C@H](C(=O)N[C@@H](CC(C)C)C(=O)N[C@@H](CCCNC(=N)N)C(=O)N[C@@H](Cc1c[nH]cn1)C(=O)N[C@@H](Cc1ccc(O)cc1)C(=O)N[C@@H](Cc1ccc(O)cc1)C(=O)N[C@@H](CC(N)=O)C(=O)N[C@@H](Cc1c[nH]c2ccccc12)C(=O)N[C@@H](CC(C)C)C(=O)N[C@H](C(=O)N[C@@H](CCCNC(=N)N)C(=O)N[C@@H](CCC(N)=O)C(=O)N[C@@H](CCCNC(=N)N)C(=O)N[C@@H](Cc1ccc(O)cc1)C(N)=O)[C@@H](C)O)[C@@H](C)O)C(C)C` [Compound 184, N{alpha-4}-(3-methylbutanoyl)-N{epsilon-7}-[2-(2-{2-[2-(2-{2-[(4S)-4-carboxy-4-(17-carboxyheptadecanamido)butanamido]ethoxy}ethoxy)acetamido]ethoxy}ethoxy)acetamido]-[4A,7K,9E,11A,18Q,22V,23T,28Y,30W,31L]hPYY (4-36)] it was 2.06 nM; in that of `CC(C)CC(=O)N[C@@H](C)C(=O)N1CCC[C@H]1C(=O)N[C@@H](CCC(=O)O)C(=O)N[C@@H](CCCCNC(=O)COCCOCCNC(=O)COCCOCCNC(=O)CC[C@H](NC(=O)CCCCCCCCCCCCCCCCC(=O)O)C(=O)O)C(=O)N1CCC[C@H]1C(=O)N[C@@H](CCC(=O)O)C(=O)N[C@@H](CCC(=O)O)C(=O)N[C@@H](CC(=O)O)C(=O)N[C@@H](C)C(=O)N[C@@H](CO)C(=O)N1CCC[C@H]1C(=O)N[C@@H](CCC(=O)O)C(=O)N[C@@H](CCC(=O)O)C(=O)N[C@@H](CC(C)C)C(=O)N[C@@H](CCC(N)=O)C(=O)N[C@@H](CCCNC(=N)N)C(=O)N[C@@H](Cc1ccc(O)cc1)C(=O)N[C@@H](Cc1ccc(O)cc1)C(=O)N[C@H](C(=O)N[C@@H](CO)C(=O)N[C@@H](CC(C)C)C(=O)N[C@@H](CCCNC(=N)N)C(=O)N[C@@H](Cc1c[nH]cn1)C(=O)N[C@@H](CCC(N)=O)C(=O)N[C@@H](Cc1ccc(O)cc1)C(=O)N[C@@H](CC(N)=O)C(=O)N[C@@H](Cc1c[nH]c2ccccc12)C(=O)N[C@@H](CC(C)C)C(=O)N[C@H](C(=O)N[C@@H](CCCNC(=N)N)C(=O)N[C@@H](CCC(N)=O)C(=O)N[C@@H](CCCNC(=N)N)C(=O)N[C@@H](Cc1ccc(O)cc1)C(N)=O)[C@@H](C)O)C(C)C` [Compound 187, N{alpha-4}-(3-methylbutanoyl)-N{epsilon-7}-[2-(2-{2-[2-(2-{2-[(4S)-4-carboxy-4-(17-carboxyheptadecanamido)butanamido]ethoxy}ethoxy)acetamido]ethoxy}ethoxy)acetamido]-[4A,7K,9E,18Q,22V,27Q,28Y,30W,31L]hPYY (4-36)], 2.76 nM; in that of `CC(C)CC(=O)N[C@@H](C)C(=O)N1CCC[C@H]1C(=O)N[C@@H](CCC(=O)O)C(=O)N[C@@H](CCCCNC(=O)COCCOCCNC(=O)COCCOCCNC(=O)CC[C@H](NC(=O)CCCCCCCCCCCCCCCCC(=O)O)C(=O)O)C(=O)N1CCC[C@H]1C(=O)N[C@@H](CCC(=O)O)C(=O)N[C@@H](CCC(=O)O)C(=O)N[C@@H](CC(=O)O)C(=O)N[C@@H](C)C(=O)N[C@@H](CO)C(=O)N[C@@H](CCC(=O)O)C(=O)N[C@@H](C)C(=O)N[C@@H](CCC(=O)O)C(=O)N[C@@H](CC(C)C)C(=O)N[C@@H](CCC(N)=O)C(=O)N[C@@H](CCCNC(=N)N)C(=O)N[C@@H](Cc1ccc(O)cc1)C(=O)N[C@@H](Cc1ccc(O)cc1)C(=O)N[C@H](C(=O)N[C@@H](CO)C(=O)N[C@@H](CC(C)C)C(=O)N[C@@H](CCCNC(=N)N)C(=O)N[C@@H](Cc1c[nH]cn1)C(=O)N[C@@H](Cc1ccc(O)cc1)C(=O)N[C@@H](Cc1ccc(O)cc1)C(=O)N[C@@H](CC(N)=O)C(=O)N[C@@H](Cc1c[nH]c2ccccc12)C(=O)N[C@@H](CC(C)C)C(=O)N[C@H](C(=O)N[C@@H](CCCNC(=N)N)C(=O)N[C@@H](CCC(N)=O)C(=O)N[C@@H](CCCNC(=N)N)C(=O)N[C@@H](Cc1ccc(O)cc1)C(N)=O)[C@@H](C)O)C(C)C` [Compound 189, N{alpha-4}-(3-methylbutanoyl)-N{epsilon-7}-[2-(2-{2-[2-(2-{2-[(4S)-4-carboxy-4-(17-carboxyheptadecanamido)butanamido]ethoxy}ethoxy)acetamido]ethoxy}ethoxy)acetamido]-[4A,7K,9E,14E,15A,18Q,22V,28Y,30W,31L]hPYY (4-36)], 2.08 nM.
